# Source: US10357492B2, “Levosimendan for use in the treatment of motor neuron diseases (E.G. ALS)” (Orion Corporation, priority 2014, dated 2019)
# Key:
# [1] = system: Antibody Induced Myasthenia Gravis Model in Female Lewis Rats; assay: accelerated rotating rod test (Rotarod) in antibody induced myasthenia gravis model; format: in vivo; conditions: single oral dosage on day 2 (48 h after antibody); levosimendan 0.25 mg/kg, active metabolite (II) 0.025 mg/kg; measured 0.5 h, 1 h, 2 h after treatment; FIG. 1
# Protocol: (§1) The effects of levosimendan and its active metabolite (II) on skeletal muscle weakness were studied in an experimental model of Myasthenia Gravis (Russell A J et al., Nat Med 18 (3), 2012, 452-5). Myasthenia Gravis was induced in female Lewis rats by injecting 500 μg/kg of nAChRα1/3/5 antibody (SC-58604, Santa Cruz Biotechnology) intraperitoneally on day 0. Animals with 40-70% drop in muscle strength from baseline at 48 h after administration of the antibody were randomized into treatment groups: 1) Vehicle control (n=6) (0.5% Methocel 5 ml/kg orally), 2) Levosimendan (n=6) (0.25 mg/kg orally), 3) Active metabolite (II) (n=6) (0.025 mg/kg orally).
# Coordination, balance, and motor skill acquisition were tested using an accelerated rotating rod test (Rotarod, Ugo Basile, Comerio, Italy). Rats were placed on a rod that accelerated smoothly from 4 to 40 rpm over a period of 5 min. The length of time that each animal was able to stay on the rod was recorded. Three consecutive measurements were performed. Rats were trained for the test four times one day before and twice on the day of antibody injection. Effects of different drug treatments on Rotarod response were measured 0.5 h, 1 h, and 2 h after oral treatment on day 2, i.e. 48 hours after the induction of Myasthenia Gravis.
# [2] = system: Antibody Induced Myasthenia Gravis Model in Female Lewis Rats; assay: treadmill exercise capacity test in antibody induced myasthenia gravis model; format: in vivo; conditions: 2 h post-dosing of repeated oral dosage on day 3 (72 h after antibody); levosimendan 0.25 mg/kg, active metabolite (II) 0.025 mg/kg; FIG. 2
# Protocol: as §1
# Exercise capacity measurements were performed with airtight treadmill (Accupacer treadmill, Accuscan Instruments, USA) connected to a respiratory gas analysing system. Rehearsals and exercise capacity measurements were started with familiarising the rats with the treadmill chambers for 15 minutes (restmill). The exercise program consisted of 15 min running at 10 m/min until the rat was incapable to keep up the speed despite of electric shock motivation. Rats were trained for the test three times one day before and twice on the day of antibody injection. Effects of different drug treatments on treadmill responses were measured 1 h and 2 h after oral treatment on day 3 (72 h after induction of Myasthenia Gravis).
# [3] = pharmacokinetics (half-life); conditions: rat, in vivo; "in rats" printed for the active metabolite (II) only; read-out: t½ (converted)
SMILES,effect on muscle function in Rotarod test (time able to stay on the rotating rod) [1],effect on skeletal muscle function in treadmill test (exercise duration) [2],half-life [3] [h]
"CC(=O)Nc1ccc(C2=NNC(=O)C[C@H]2C)cc1 [active metabolite (II), (R)—N-[4-(1,4,5,6-tetrahydro-4-methyl-6-oxo-3-pyridazinyl)phenyl]-acetamide]",acute and transient improvement in muscle function,positive effect,5
"CC1CC(=O)NN=C1c1ccc(NN=C(C#N)C#N)cc1 (single isomer, unassigned) [Levosimendan, [[4-(1,4,5,6-tetrahydro-4-methyl-6-oxo-3-pyridazinyl)phenyl]hydrazono]propanedinitrile]",acute and transient improvement in muscle function,positive effect,0.7
